The text below walks through data of US6319929A, “Suksdorfin analogs, compositions thereof, and methods for making and using thereof” (priority 1998, dated 2001).

The subject of assay [1] is HIV-1 replication in H9 cells. Nature of the assay: Combination study of suksdorfin with AZT, ddI and ddC: HIV-1 replication in acutely infected H9 cells. In kind it is cell-based, HIV-1 (IIIB). As to conditions: for EC50 / IC50: Human immunodeficiency virus 1, H9; for EC50 / IC50 / Therapeutic Index: combinations with 4 μg/ml suksdorfin; for EC50: read-out: EC50; for IC50: concentration which inhibits viral replication by 50%, read-out: IC50 (μM)^b. How it is done: HIV Growth Inhibition Assay: The T cell line, H9, and the promonocytic cell line, U937, were maintained separately in continuous culture with complete medium (RPMI 1640 and […] fetal calf serum (FCS) at 5% CO2 and 37° C. Cell lines were used in experiments only when in log phase of growth; whereas, uninfected peripheral blood mononuclear cells (PBMCs) were first stimulated with PHA (1 μg/ml) for 3 days. All cell targets were incubated with HIV-1 (IIIB isolate, TCID50 10 ^4 IU/mi, at a multiplicity of infection of 0.1-0.01 IU/cell) for 1 hour at 37° C. and 5% CO2. The cell lines and PBMCs were washed thoroughly to remove unabsorbed virions and resuspended at 4×10^5 cells/ml in complete medium or complete medium with 10% v/v interleukin […] IL-2, respectively. Aliquots ( ml) were placed in wells of 24-well culture plates containing an equal volume of test compound (diluted in the appropriate culture medium). After incubation for 4 days at 37° C., cell density of uninfected cultures was determined by counting cells in a Coulter counter to assess toxicity of the test compound. A p24 antigen ELISA assay was used to determine the level of virus released in the medium of the HIV-infected cultures. The p24 antigen assay uses a HIV-1 anti-p24 specific monoclonal antibody as the capture antibody coated-on 96-well plates. Following a sample incubation period, rabbit serum containing antibodies for HIV-1 p24 is used to tag any p24 "captured" onto the microtiter well surface. […] The cut-off for the p24 ELISA assay is 12. pg/ml. P24 in the culture medium was quantitated against a standard curve containing known amounts of p24. […] Both the EC50 and IC50 values were calculated by plotting drug concentration versus percent inhibition, and then identifying a 50% inhibition value from the graph.
Combination Study: The experimental design is identical to the growth inhibition assay except that various concentrations of AZT, ddI or ddC were also added to cultures of acutely HIV-1 infected H9 cells that either have or have no received different concentrations of suksdorfin. The concentrations of AZT, ddI and ddC were 5 ten-fold dilutions starting at 1 μg/ml. [drawing 104] [drawing 105]

Assay [2] concerns uninfected H9 cells. The assay is described as follows: Combination study of suksdorfin with AZT, ddI and ddC: toxicity to uninfected H9 cells. In kind it is cell-based. As to conditions: Homo sapiens, H9, combinations with 4 μg/ml suksdorfin. How it is done: Pharm. Asso. […] Aliquots ( ml) were placed in wells of 24-well culture plates containing an equal volume of test compound (diluted in the appropriate culture medium). After incubation for 4 days at 37° C., cell density of uninfected cultures was determined by counting cells in a Coulter counter to assess toxicity of the test compound. A p24 antigen ELISA assay was used to determine the level of virus released in the medium of the HIV-infected cultures. The p24 antigen assay uses a HIV-1 anti-p24 specific monoclonal antibody as the capture antibody coated-on 96-well plates. Following a sample incubation period, rabbit serum containing antibodies for HIV-1 p24 is used to tag any p24 "captured" onto the microtiter well surface. […] The cut-off for the p24 ELISA assay is 12. pg/ml. P24 in the culture medium was quantitated against a standard curve containing known amounts of p24. The effective (EC50) and inhibitory (IC50) concentrations (for anti-HIV activity and cytotoxicity, respectively) were determined graphically.
Combination Study: The experimental design is identical to the growth inhibition assay except that various concentrations of AZT, ddI or ddC were also added to cultures of acutely HIV-1 infected H9 cells that either have or have no received different concentrations of suksdorfin.

Assay [3] concerns HIV-1 replication in H9 cells. The assay is described as follows: HIV-1 replication inhibition in acutely infected H9 lymphocytes (p24 antigen ELISA). In kind it is cell-based, HIV-1 (IIIB strain). As to conditions: IC50 for cell growth inhibition divided by EC50 for HIV inhibition; H9. How it is done: HIV inhibition assay. The HIV inhibition was measured as described herein. Briefly, H9 cells, a T cell line, (3.5×10^6 cells/ml) were incubated in the presence or absence of HIV-1 (IIIB strain, 0.01-0.1 TCID50 /cell) for 1 hour at 37° C. Cells were washed thoroughly and resuspended at a final concentration of 2×10^5 cells/ml in the presence or absence of compound. After incubation for 3-4 days at 37° C., the cell density of uninfected cultures was determined by cell count to assess toxicity of the drug. An aliquot of each cell-free supernatant was assayed by p24 antigen ELISA to quantitate the amount of HIV-1 present in the infected cultures. Test compounds were considered to be active at a particular concentration if p24 antigen levels were less than 70% of infected, untreated controls and were nontoxic to uninfected H9 cells.
HIV Growth Inhibition Assay: The T cell line, H9, and the promonocytic cell line, U937, were maintained separately in continuous culture with complete medium (RPMI 1640 and […] fetal calf serum (FCS) at 5% CO2 and 37° C. Cell lines were used in experiments only when in log phase of growth; whereas, uninfected peripheral blood mononuclear cells (PBMCs) were first stimulated with PHA (1 μg/ml) for 3 days. All cell targets were incubated with HIV-1 (IIIB isolate, TCID50 10 ^4 IU/mi, at a multiplicity of infection of 0.1-0.01 IU/cell) for 1 hour at 37° C. and 5% CO2. The cell lines and PBMCs were washed thoroughly to remove unabsorbed virions and resuspended at 4×10^5 cells/ml in complete medium or complete medium with 10% v/v interleukin […] IL-2, respectively. Aliquots ( ml) were placed in wells of 24-well culture plates containing an equal volume of test compound (diluted in the appropriate culture medium). After incubation for 4 days at 37° C., cell density of uninfected cultures was determined by counting cells in a Coulter counter to assess toxicity of the test compound. A p24 antigen ELISA assay was used to determine the level of virus released in the medium of the HIV-infected cultures. The p24 antigen assay uses a HIV-1 anti-p24 specific monoclonal antibody as the capture antibody coated-on 96-well plates. Following a sample incubation period, rabbit serum containing antibodies for HIV-1 p24 is used to tag any p24 "captured" onto the microtiter well surface. Peroxidase conjugated goat anti-rabbit serum is then used to tag HIV-1 p24 specific rabbit antibodies which have complexed with captured p24. […] The cut-off for the p24 ELISA assay is 12. pg/ml. P24 in the culture medium was quantitated against a standard curve containing known amounts of p24. The effective (EC50) and inhibitory (IC50) concentrations (for anti-HIV activity and cytotoxicity, respectively) were determined graphically. Both the EC50 and IC50 values were calculated by plotting drug concentration versus percent inhibition, and then identifying a 50% inhibition value from the graph.
On the technique in general: ELISA stands for enzyme-linked immunosorbent assay.

Where [4] appears, read: Table 16, concentration which inhibits uninfected cell growth by 50%, read-out: IC50 (μM)^a.

Where two headings read alike, the source gives them in different places.

Consider `Nc1ccn([C@H]2CC[C@@H](CO)O2)c(=O)n1` [ddC, dideoxycytidine], for which the EC50 in assay [1] (Table 5) turned out to be 0.004 µg/mL. For the same compound, the IC50 in assay [1] (Table 16) was 0.004 µg/mL; in assay [2] (Table 5, read-out: IC50) it was over 1 µg/mL; in assay [2] (setting [4]), over 1 µg/mL. Also, the “Therapeutic Index” value in assay [1] (Table 5) and in assay [1] (Table 16) was over 250 in each case. Moreover, the “decrease of EC50 in presence of suksdorfin” value in assay [1] (with 4 μg/ml suksdorfin, H9) is listed as 40 fold.
As to `O=c1[nH]cnc2c1ncn2[C@H]1CC[C@@H](CO)O1` [ddI], the entries for the “Therapeutic Index” value in assay [3], in assay [1] (Table 5) and in assay [1] (Table 16) were over 400, over 2.5 and over 2.5, respectively. Further, in assay [1] (Table 5), the EC50 turned out to be 0.4 µg/mL. Moreover, the IC50 is 0.4 µg/mL in assay [1] (Table 16); over 1 µg/mL in assay [2] (Table 5, read-out: IC50); over 1 µg/mL in assay [2] (setting [4]). Moreover, in assay [1] (with 4 μg/ml suksdorfin, H9), the “decrease of EC50 in presence of suksdorfin” value amounted to 4000 fold. In addition, the “reduction of amount of nucleoside needed in presence of suksdorfin” value in assay [1] (with 4 μg/ml suksdorfin, H9) worked out at 4000 fold.

Broadly, the EC50 is the concentration at which the effect is half-maximal. Usually IC50 stands for the concentration that gives 50% inhibition.
